# Results as given in paper PMC8149447, “Caerulomycin and collismycin antibiotics share a trans-acting flavoprotein-dependent assembly line for 2,2’-bipyridine formation” (Nature Communications, 2021).
# B1: MBP-fused CaeB1 variant (enzyme)
# chain: MTTGNGAAPPPLTRLSPEDEAWRAHVRAFAEEHIAPLSDRMDRDATLDPGLREKLFSAGLMAVEAPARYGGRGGSLFQVVLTIEEVARVDPGVAVGVDVHNALVVATLLRQGTGDQKRRRLPLLATRQVGAFALSEENAGSDAFAGTTTAVPTSDGGYRINGRKRWTSNAGQADVFLVFARTEGHGSSAFLVDRTAEGLSIDPRTEQMGVRAAATADVVLTDVRVRRQDCVGGPGGGEGVAIGALDIGRIGIAAQMVGLAQGALDEAVAYSRTREQFGQPIGSYQGVRFTLADIATEVAAARALLYDVTRTVAAGTDIAERLRLTAMAKYFASQVAERAASRALEVLGGNGFTREYPLERFYRDVKAGKIYEGTSNMLLRSIAGSL
# B2: N-terminally thioredoxin (Trx)-tagged Ct domain of the CaeA2 NRPS module (domain or fragment)
# chain: EQEADGTVAPFTPHQAALVAEGAVDWITVEAAASDLDPALAERALREIADRHPALRLRSGTRDDGTPGQYDGGSPGDGLFSEIDLSGLAEDARDDALAEIVAEMSEEVGLAEREPVKLAVVRAGADDVRLLWLAAGAALDDTSWRLLLAEFGRAYQQLAERGSIDWTGMPESVLGWVATQEGAAPPPSVETVAFTGELRTVLDADVTTAFAEATFGAYHLELGEAVAAALTVAARAWPGREPAVTVERSLRTATTDEALGRFTEVTTLDVAAEAVADTLTGVKRAYRDVVRPAPAHPRVHLRDVRSGDWRPTAGPLSPAGLSSPVSTATTPEVLAEVGAAVVGGELVLRWRHTTDAAEATALAEAFTEAVETITEHCRQAGSGSYEPSDFPLAGVDPDELSALLSTLEK
# modifications: Trx/6xHis tag omitted; Ct primers not in the excerpt; start placed just after the Carrier feature (2001-2075), in line with the 58 kDa Trx fusion and the 44 kDa difference between CaeA2 and …
# Columns and labels:
# [1] = biological target: N-terminally thioredoxin (Trx)-tagged Ct domain of the CaeA2 NRPS module (A. cyanogriseus (CAE-producing strain)); assay: ITC; MicroCal-ITC200, 25°C; 60 μM CaeA2 construct in the cell, 400 μM flavoprotein in the syringe; 50 mM Tris-HCl pH 7.5, 100 mM NaCl, 0.1 mM TCEP, 5% glycerol; single binding site model
# ColA3 = biological target: T1, ColA3 (Streptomyces filamentosus, UniProt A0ABY4UPY4); assay: HPLC / MS of product […] (as IAA derivative […]) or […]; assay type: biochemical; conditions: reconstituted with CaeA1, CaeA2, CaeB1; picolinic acid, malonyl-CoA, L-cysteine, ATP, Mg, pH 7.5, 30 C
# T1 construct: gene K7395_06055; full length C-A-PCP module, N-terminal 6xHis (or MBP-6xHis) tag
# CaeB1 [2] = biological target: T2, CaeB1 (Actinoalloteichus caeruleus, UniProt M1F383, S168A); assay: absorbance spectrum; activity rescue by added FAD; assay type: biochemical; conditions: noncovalent; excess FAD added in the product assay
# T2 construct: full length, N-terminal 6xHis (or MBP-6xHis) tag, expressed in E. coli; noncovalent FAD
# CaeB1 [3] = biological target: T3, CaeB1 (Actinoalloteichus caeruleus, UniProt M1F383); assay: absorbance spectrum; heat denaturation and HPLC-HR-MS; assay type: binding; conditions: noncovalent; co-purified, oxidized form
# T3 construct: full length, N-terminal 6xHis (or MBP-6xHis) tag, expressed in E. coli; noncovalent FAD
# T3 sequence (M1F383 1-386): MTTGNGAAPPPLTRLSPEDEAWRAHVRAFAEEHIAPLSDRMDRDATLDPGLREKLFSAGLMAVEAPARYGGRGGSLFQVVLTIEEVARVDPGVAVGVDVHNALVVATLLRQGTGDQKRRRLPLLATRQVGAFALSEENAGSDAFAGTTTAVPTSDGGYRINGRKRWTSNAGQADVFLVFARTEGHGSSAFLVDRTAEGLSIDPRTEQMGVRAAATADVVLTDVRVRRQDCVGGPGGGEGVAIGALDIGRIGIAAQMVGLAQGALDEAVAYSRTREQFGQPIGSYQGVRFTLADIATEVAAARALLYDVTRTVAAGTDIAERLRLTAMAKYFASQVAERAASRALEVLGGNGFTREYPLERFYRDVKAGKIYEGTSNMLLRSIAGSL
# ColB1 = biological target: T4, ColB1 (Streptomyces filamentosus, UniProt A0ABY4UQ20); assay: heat denaturation and HPLC-DAD / ESI-HR-MS; assay type: binding; conditions: noncovalent; co-purified
# T4 construct: gene K7395_06050; full length, N-terminal 6xHis (or MBP-6xHis) tag; noncovalent FAD
# T4 sequence (A0ABY4UQ20 1-394): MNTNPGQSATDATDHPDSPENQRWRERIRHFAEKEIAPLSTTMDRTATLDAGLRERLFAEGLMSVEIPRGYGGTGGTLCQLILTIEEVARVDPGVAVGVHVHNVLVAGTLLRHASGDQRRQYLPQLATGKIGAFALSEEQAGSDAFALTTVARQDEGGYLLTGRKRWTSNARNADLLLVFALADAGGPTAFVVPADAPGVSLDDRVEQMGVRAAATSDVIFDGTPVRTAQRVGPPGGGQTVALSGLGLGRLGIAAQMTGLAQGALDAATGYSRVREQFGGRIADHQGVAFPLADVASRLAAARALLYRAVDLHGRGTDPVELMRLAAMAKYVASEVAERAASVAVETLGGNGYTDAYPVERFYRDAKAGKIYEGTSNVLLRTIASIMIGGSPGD
# CaeB1 [4] = biological target: T5, CaeB1 (Actinoalloteichus caeruleus, UniProt M1F383, E372L); assay: absorbance spectrum of purified protein; assay type: binding; conditions: noncovalent; co-purified, oxidized form
# T5 construct: full length, N-terminal 6xHis (or MBP-6xHis) tag, expressed in E. coli; noncovalent FAD
# [5] = biological target: Ct-PCP didomain of the CaeA2 NRPS module (A. cyanogriseus (CAE-producing strain)); assay: ITC; MicroCal-ITC200, 25°C; 60 μM CaeA2 construct in the cell, 400 μM flavoprotein in the syringe; 50 mM Tris-HCl pH 7.5, 100 mM NaCl, 0.1 mM TCEP, 5% glycerol; single binding site model
# MBP-fused CaeB1 variant = biological target: T6, MBP-fused CaeB1 variant (A. cyanogriseus (CAE-producing strain), UniProt M1F383 1-386); assay: as above; conditions: both partners purified
# T6 construct: CaeB1, flavin (FAD)-dependent protein of the caerulomycin (cae) biosynthetic gene cluster; also called trans-acting flavoprotein; not shown: MBP, N-terminal, kept
# T6 sequence (looked up): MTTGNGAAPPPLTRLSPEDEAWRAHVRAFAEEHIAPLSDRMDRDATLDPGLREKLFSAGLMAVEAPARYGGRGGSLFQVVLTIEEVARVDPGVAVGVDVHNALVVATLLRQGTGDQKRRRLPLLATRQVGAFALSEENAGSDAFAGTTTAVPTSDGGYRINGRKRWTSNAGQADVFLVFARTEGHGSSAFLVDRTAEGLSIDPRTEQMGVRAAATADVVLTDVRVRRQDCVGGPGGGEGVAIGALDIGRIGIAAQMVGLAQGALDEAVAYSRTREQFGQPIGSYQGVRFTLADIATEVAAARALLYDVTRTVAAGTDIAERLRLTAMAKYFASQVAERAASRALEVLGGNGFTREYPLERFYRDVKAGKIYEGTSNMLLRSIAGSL
# T2 sequence (M1F383 entry or part of it S168A): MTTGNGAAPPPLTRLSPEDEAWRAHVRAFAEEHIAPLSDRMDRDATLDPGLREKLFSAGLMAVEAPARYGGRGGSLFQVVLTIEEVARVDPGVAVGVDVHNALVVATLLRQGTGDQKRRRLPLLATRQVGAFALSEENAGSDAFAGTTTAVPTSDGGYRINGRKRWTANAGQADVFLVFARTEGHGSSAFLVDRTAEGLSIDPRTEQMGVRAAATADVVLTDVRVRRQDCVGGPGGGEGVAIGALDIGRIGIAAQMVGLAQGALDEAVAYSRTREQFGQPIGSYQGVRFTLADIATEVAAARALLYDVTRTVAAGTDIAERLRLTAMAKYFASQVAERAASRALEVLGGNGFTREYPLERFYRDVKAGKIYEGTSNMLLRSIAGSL
# T5 sequence (M1F383 entry or part of it E372L): as the sequence (M1F383 entry or part of it S168A) above, with A168S, E372L counted along it
# T1 sequence (A0ABY4UPY4 entry or part of it): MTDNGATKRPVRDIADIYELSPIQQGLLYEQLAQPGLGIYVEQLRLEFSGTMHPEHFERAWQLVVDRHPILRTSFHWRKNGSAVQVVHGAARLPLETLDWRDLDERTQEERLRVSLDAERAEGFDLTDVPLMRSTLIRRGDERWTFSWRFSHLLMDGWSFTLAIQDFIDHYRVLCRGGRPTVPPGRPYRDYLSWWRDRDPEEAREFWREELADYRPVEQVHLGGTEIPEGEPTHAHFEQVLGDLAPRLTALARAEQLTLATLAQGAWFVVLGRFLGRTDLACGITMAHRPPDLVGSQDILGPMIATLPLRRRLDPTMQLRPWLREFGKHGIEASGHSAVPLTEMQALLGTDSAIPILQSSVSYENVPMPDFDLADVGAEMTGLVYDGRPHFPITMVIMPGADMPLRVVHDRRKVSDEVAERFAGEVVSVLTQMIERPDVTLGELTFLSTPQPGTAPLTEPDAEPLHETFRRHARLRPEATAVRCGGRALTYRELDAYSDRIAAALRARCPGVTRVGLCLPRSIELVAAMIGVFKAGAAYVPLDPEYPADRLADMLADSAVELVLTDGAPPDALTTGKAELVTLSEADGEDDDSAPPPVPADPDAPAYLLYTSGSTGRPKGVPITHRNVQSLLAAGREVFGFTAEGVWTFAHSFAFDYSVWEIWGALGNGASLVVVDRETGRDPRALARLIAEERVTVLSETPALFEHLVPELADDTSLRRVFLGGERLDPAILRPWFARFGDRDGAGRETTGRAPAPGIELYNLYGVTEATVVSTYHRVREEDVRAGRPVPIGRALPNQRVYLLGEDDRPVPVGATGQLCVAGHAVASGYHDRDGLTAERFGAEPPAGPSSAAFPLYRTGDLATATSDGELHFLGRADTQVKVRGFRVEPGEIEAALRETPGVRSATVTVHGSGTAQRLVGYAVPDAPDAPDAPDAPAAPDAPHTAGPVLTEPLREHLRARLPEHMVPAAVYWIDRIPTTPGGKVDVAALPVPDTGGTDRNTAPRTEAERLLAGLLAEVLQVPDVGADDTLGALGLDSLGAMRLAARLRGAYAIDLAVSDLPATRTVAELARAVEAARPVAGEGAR
molecule,measurement,setting,value
ColB1 (enzyme),Kd,[1],1180 nM
CC(C)C[C@H](N)C(=O)O [L-leucine],HPLC / MS of product 15 (as IAA derivative 17) or 16,ColA3,"incubating CaeA1, CaeA2, and CaeB1 with ColA3 in the presence of the necessary substrates"
Cc1cc2nc3c(=O)[nH]c(=O)nc-3n(C[C@H](O)[C@H](O)[C@H](O)COP(=O)(O)OP(=O)(O)OC[C@H]3O[C@@H](n4cnc5c(N)ncnc54)[C@H](O)[C@@H]3O)c2cc1C [FAD],FAD-binding ability,CaeB1 [2],"the latter variant was nearly colorless, indicating the loss of FAD-binding ability"
same,absorbance spectrum; heat denaturation and HPLC-HR-MS,CaeB1 [3],"Purified CaeB1, which appeared light yellow, was determined to bind oxidized flavin adenine dinucleotide (FAD)"
same,heat denaturation and HPLC-DAD / ESI-HR-MS,ColB1,"ColB1, the homolog of trans-acting flavoprotein CaeB1 that also noncovalently binds a FAD cofactor"
same,absorbance spectrum of purified protein,CaeB1 [4],shares with the wild-type protein a light yellow color and an absorbance spectrum characteristic of FAD
B1,Kd,[5],420 nM
B2,Kd,MBP-fused CaeB1 variant,530 ± 120 nM
